Assay results from paper PMC11579541, “In vitro, in vivo, and in silico approaches for evaluating the preclinical DMPK profiles of ammoxetine, a novel chiral serotonin and norepinephrine reuptake inhibitor” (Frontiers in Pharmacology, 2024).
Values joined by “and” are separate entries in the source; they are usually repeats but may differ in a detail not shown here. Equal values may be shown once.

Legend:
[1] = Configurational stability study (in vivo chiral inversion); set-up: species or system SD rats; details: rat plasma 2 h after 50 mg/kg oral, chiral HPLC
Procedure: Twelve SD rats were divided into three groups: a blank control group, an S-071031B group (50 mg/kg), and an R-071031B group (50 mg/kg). Prior to administration, the animals underwent a 12-h fasting period while having access to water. At 2 h post-dosing, the rats were anesthetized, and blood samples were collected from the abdominal aorta into heparinized tubes. Plasma samples were obtained by centrifuging the collected blood at 2,000×g for 10 min to remove blood cells. Subsequently, 1 mL of plasma sample was mixed with 100 μL of 0.1% sodium hydroxide solution and 4 mL of ether. After centrifugation at 2,000×g for 10 min, the upper organic phase within each group was combined, transferred to a new tube, and dried under a stream of nitrogen. The resulting residues were reconstituted with 100 μL of methanol for subsequent HPLC analysis.
A chiral chromatographic column was employed to separate the enantiomers, and the RT of X-071031B (racemic 071031B) and S-071031B (ammoxetine) standards were determined for identification. Plasma samples were collected from rats 2 h after oral administration of 50 mg/kg of S-071031B or R-071031B. The presence of a chromatographic peak at the RT corresponding to the opposite enantiomer following the administration of the S-isomer would indicate the conversion of the S-isomer to the R-isomer in rats. […]

[2] = Hepatic microsome stability assay, RLM; type: in vitro ADME, rat; details: rat, liver microsomes, pH 7.4; 1 μmol/L, 0.2 g/L microsomes, NADPH
Procedure: (§1) A hepatic microsome stability assay was conducted to investigate the metabolic disposition of ammoxetine. In this assay, 100 μL of ammoxetine (2.5 μmol/L) was incubated at 37°C with 100 μL of liver microsomes (RLM, DLM, MLM, or HLM) formulated in a 5 mmol/L dipotassium hydrogen phosphate (K2HPO4) buffer at pH 7.4. The concentration of microsomes was 0.5 g/L. To initiate the incubations, 50 μL of NADPH solution preincubated at 37°C was added. […] Parallel triplicate samples were prepared for each time point, including 0, 2, 5, 10, 15, 30, 60, 90, and 120 min. To stop the reactions at each time point, 250 μL of ice-cold precipitating agent (acetonitrile/methanol, 1:1, v/v) containing 500 ng/mL of L-phencynonate (IS) was added to the incubation mixture. The samples were vortexed for 2 min at 4°C and then centrifuged at 13,800×g for 10 min. The supernatants were analyzed using an LC-MS-MS approach. […]
(§2) In Formula 3, t1/2 (min) represents the half-life of ammoxetine in liver microsomes. It is calculated by dividing −0.693 by the resulting slope (k e) obtained from a natural logarithm plot of the remaining concentration of ammoxetine against incubation time. […]

RLM = experiment: Hepatic microsome stability assay, RLM; type: in vitro ADME, rat; details: predicted hepatic clearance
Procedure: as §1, §2

CYP 3A4 = CYP 3A4 (Homo sapiens, UniProt P08684); experiment: Phenotyping with recombinant human CYP 3A4; type: in vitro ADME; set-up: purchased BD (Woburn, USA); details: 5 μmol/L, 25 pmol/mL CYP, 1 h
Procedure: (§3) Ammoxetine (final concentration 5 μmol/L) was incubated with recombinant human CYP 3A4, CYP 1A2, CYP 2C9, CYP 2C19, and CYP 2D6 (final concentration 25 pmol/mL) in a 5 mmol/L K2HPO4 buffer at pH 7.4. The incubations were performed in quintuplicate. NADPH (final concentration 1 mmol/L) was added to initiate the incubation process. The mixture was then incubated at 37°C for 1 h. To stop the reaction, 200 μL of ice-cold acetonitrile/methanol (1:1, v/v) containing 500 ng/mL of L-phencynonate (IS) was added. The samples were vortexed for 2 min and centrifuged at 13,800×g and 4°C for 10 min. The supernatants obtained were analyzed using an LC-MS-MS method. To establish appropriate controls, zero-time controls and blank controls in the absence of NADPH were set up in parallel.

CYP 2D6 = CYP 2D6 (Homo sapiens, UniProt P10635); experiment: Phenotyping with recombinant human CYP 2D6; type: in vitro ADME; set-up: purchased BD (Woburn, USA); details: 5 μmol/L, 25 pmol/mL CYP, 1 h
Procedure: as §3

[3] = Hepatic microsome stability assay, DLM; type: in vitro ADME, dog; details: beagle, dog, liver microsomes, pH 7.4; 1 μmol/L, 0.2 g/L microsomes, NADPH
Procedure: as §1, §2

DLM = experiment: Hepatic microsome stability assay, DLM; type: in vitro ADME, dog; details: predicted hepatic clearance
Procedure: as §1, §2

[4] = set-up: method as in Xue et al., 2017; details: citric acid/phosphate buffer (pH 2); ref Xue et al., 2017; cited from earlier work
[5] = Hepatic microsome stability assay, MLM; type: in vitro ADME, monkey; details: monkey, liver microsomes, pH 7.4; 1 μmol/L, 0.2 g/L microsomes, NADPH
Procedure: as §1, §2

MLM = experiment: Hepatic microsome stability assay, MLM; type: in vitro ADME, monkey; details: predicted hepatic clearance
Procedure: as §1, §2

CYP 3A4, sequence (P08684 whole entry): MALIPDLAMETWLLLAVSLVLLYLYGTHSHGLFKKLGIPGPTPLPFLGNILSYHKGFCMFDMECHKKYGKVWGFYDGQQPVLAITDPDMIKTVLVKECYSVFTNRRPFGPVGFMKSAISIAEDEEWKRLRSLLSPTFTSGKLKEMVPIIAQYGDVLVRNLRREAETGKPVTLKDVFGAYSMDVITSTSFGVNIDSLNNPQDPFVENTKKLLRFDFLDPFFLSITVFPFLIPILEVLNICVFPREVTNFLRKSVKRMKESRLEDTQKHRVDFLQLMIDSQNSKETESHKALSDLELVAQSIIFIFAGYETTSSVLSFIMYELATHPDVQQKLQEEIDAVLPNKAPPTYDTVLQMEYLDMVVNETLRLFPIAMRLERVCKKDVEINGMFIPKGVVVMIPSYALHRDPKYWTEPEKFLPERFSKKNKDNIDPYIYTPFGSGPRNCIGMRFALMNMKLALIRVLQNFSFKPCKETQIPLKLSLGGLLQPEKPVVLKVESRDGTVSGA
CYP 2D6, sequence (P10635 whole entry): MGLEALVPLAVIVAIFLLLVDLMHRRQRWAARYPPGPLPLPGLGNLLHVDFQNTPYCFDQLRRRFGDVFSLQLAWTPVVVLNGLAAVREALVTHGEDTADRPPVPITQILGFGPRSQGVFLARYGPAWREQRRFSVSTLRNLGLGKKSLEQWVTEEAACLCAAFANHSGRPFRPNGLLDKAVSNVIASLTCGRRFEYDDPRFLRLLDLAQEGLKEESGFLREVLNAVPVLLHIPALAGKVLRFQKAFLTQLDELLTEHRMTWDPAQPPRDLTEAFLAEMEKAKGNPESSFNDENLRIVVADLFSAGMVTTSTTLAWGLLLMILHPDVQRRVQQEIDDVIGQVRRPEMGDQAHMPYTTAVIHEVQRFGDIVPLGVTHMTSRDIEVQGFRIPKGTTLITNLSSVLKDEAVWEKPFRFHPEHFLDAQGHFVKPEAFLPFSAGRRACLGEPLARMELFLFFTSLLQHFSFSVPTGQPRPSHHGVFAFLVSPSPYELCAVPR

For `CNCC[C@H](Oc1cccc2c1OCO2)c1cccs1` [ammoxetine], the “chiral inversion in vivo” value [1] was “does not undergo conversion to R-071031B”, the half-life at 1 μmol/L [2] was 12.8 ± 0.99 min and the CL h (RLM) was 49.58 ± 0.39 mL/min/kg. For the same compound, the Transformation ratio% (CYP 3A4) was 24.49±3.65% and 24.49%, the “residuary concentration of ammoxetine, Mean±SD” value (CYP 3A4) was 5.18±0.25 and the Transformation ratio% (CYP 2D6) was 14.09±1.89%. For the same compound, the “residuary concentration of ammoxetine, Mean±SD” value (CYP 2D6) was 5.89±0.13, the half-life at 1 μmol/L [3] was 138 ± 2.96 min and the CL h (DLM) was 16.64 ± 0.17 mL/min/kg. For the same compound, the stability in buffer [4] was “instability”, the half-life at 1 μmol/L [5] was 7.57 ± 0.12 min and the CL h (MLM) was 40.73 ± 0.04 mL/min/kg.
